In US20090181986A1, “SUBSTITUTED HETEROCYCLIC COMPOUNDS” (priority 2007, published 2009):
Where two headings read alike, the source gives them in different places.

Legend:
[1] = biological target: T1, wild-type human cardiac sodium channel, hNav1.5 (Homo sapiens, UniProt Q14524); test: Late INa screening assay (PatchXpress whole cell patch clamp, late current generated with Tefluthrin or ATX II); format: cell-based; details: test compound at 10 μM
Protocol: (§1) The late sodium current (Late INa) and peak sodium current (Peak INa) assays are performed on an automated electrophysiology platform, PatchXpress 7000A (MDS Analytical Technologies, Sunnyvale, Calif.), which uses the whole cell patch clump technique to measure currents through the cell membrane of up to 16 cells at a time. The assay uses an HEK293 (human embryonic kidney) cell line heterologously expressing the wild-type human cardiac sodium channel, hNav1.5, purchased from Millipore (Billerica, Mass.). No beta subunits were coexpressed with the Na channel alpha subunit. […] Experiments are carried out at 24-27° C.
(§2) For both the Late INa and Peak INa assays, series resistance compensation is set to 50% and whole-cell compensation is performed automatically. […] Currents through open sodium channels are automatically recorded and stored in the DataXpress2 database (MDS Analytical Technologies, Sunnyvale, Calif.). Analysis is performed using DataXpress2 analysis software and data are compiled in Excel.
Compound stocks are routinely made in glass vials to 10 mM in dimethyl sulfoxide (DMSO). In some cases, when compounds are not soluble in DMSO, they are made in 100% ethanol. Stocks are sonicated as necessary. The extracellular solution for screening Late INa is composed of: 140 mM NaCl, 4 mM KCl, 1.8 mM CaCl2, 0.75 mM MgCl2, and 5 mM HEPES with pH adjusted to 7.4 using NaOH. The extracellular solution for screening Peak INa is composed of: 20 mM NaCl, 120 mM N-methyl-D glucamine, 4 mM KCl, 1.8 mM CaCl2, 0.75 mM MgCl2, and 5 mM HEPES with pH adjusted to 7.4 using HCl. The intracellular solution used to perfuse the inside of the cells for both the Late INa and Peak INa assays contains: 120 mM CsF, […], 5 mM EGTA, 5 mM HEPES and pH adjusted to 7.4 with CsOH. […] The ONa extracellular solution used at the end of each experiment for the Late INa and Peak INa assays to measure baseline current contains: 140 mM N-methyl-D-glucamine; 4 mM KCl; 1.8 mM CaCl2; 0.75 mM MgCl2; 5 mM HEPES and pH was adjusted to 7.4 with HCl.
For the Late INa assay, sodium channels are activated every 10 seconds (0.1 Hz) by depolarizing the cell membrane to −20 mV for 250 milliseconds (ms) from a holding potential of −120 mV.
All compounds are tested to determine their activity in blocking the late sodium current. Late INa current is generated by adding 10 μM Tefluthrin (pyrethroid) to the extracellular solution while recording Na currents. […] For some experiments, 50 nM ATX II (sea anemone toxin), another late INa activator, was used to generate the late component. […] Baseline current in the absence of Na^+ ions is measured at the end of each experiment (after two additions of 0 Na solution—see above) and is used to calculate the percent block by compound.

[2] = biological target: T1, wild-type human cardiac sodium channel, hNav1.5; test: Peak INa screening assay (tonic block and use-dependent block); format: cell-based; details: test compound at 10 μM
Protocol: as §1, §2
Compound stocks are routinely made in glass vials to 10 mM in dimethyl sulfoxide (DMSO). In some cases, when compounds are not soluble in DMSO, they are made in 100% ethanol. Stocks are sonicated as necessary. The extracellular solution for screening Late INa is composed of: 140 mM NaCl, 4 mM KCl, 1.8 mM CaCl2, 0.75 mM MgCl2, and 5 mM HEPES with pH adjusted to 7.4 using NaOH. The extracellular solution for screening Peak INa is composed of: 20 mM NaCl, 120 mM N-methyl-D glucamine, 4 mM KCl, 1.8 mM CaCl2, 0.75 mM MgCl2, and 5 mM HEPES with pH adjusted to 7.4 using HCl. The intracellular solution used to perfuse the inside of the cells for both the Late INa and Peak INa assays contains: 120 mM CsF, […], 5 mM EGTA, 5 mM HEPES and pH adjusted to 7.4 with CsOH. Compounds are diluted in extracellular solution to […] in glass vials and then transferred to glass well plates before robotic addition to the cells. The ONa extracellular solution used at the end of each experiment for the Late INa and Peak INa assays to measure baseline current contains: 140 mM N-methyl-D-glucamine; 4 mM KCl; 1.8 mM CaCl2; 0.75 mM MgCl2; 5 mM HEPES and pH was adjusted to 7.4 with HCl.
Compounds were also evaluated for their effect in several other assays, including their effect on Peak INa. In some cases, the effect on Peak INa was measured using data from the Late INa assay. […] Since the peak INa can be very large, introducing artifacts in the recording, the concentration of Na^+ in the bath is reduced to 20 mM and a nonpermeant cation is added to compensate for the Na^+ that was omitted from the standard extracellular solution (see above). The peak INa assay uses a holding potential of −100 mV and a 20 ms test pulse to 0 mV to activate the channel. As in the Late INa assay, stepping the voltage to 0 mV causes a rapid increase in negative Na current through hNav1.5 that inactivates within a few ms. No late INa activator is added for the peak assay.
For the separate peak INa assay, both tonic (TB) block and use-dependent (UDB) block of peak inward sodium current by 10 μM compound are determined. TB is block of the channel in the resting state, before the channel opens. TB is simulated in this assay by stimulating the channel to open at a low frequency (0.1 Hz). This is done in order to measure the control current amplitude and monitor current rundown, enabling correction for rundown in the calculation of percent block for TB.

L-type calcium channel = L-type calcium channel activity well-plate assay (IMR-32 cells, Ca-4 dye, FlexStation); format: cell-based, human
Outline: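 IMR-32 human neuroblastoma cells seeded overnight at 200,000 cells/well, loaded 1 h at 37° with Ca-4 dye in HBSS/20 mM HEPES pH 7.4 with 2 mM probenecid.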

hERG potassium channel = hERG potassium channel (Homo sapiens, UniProt Q12809); test: hERG screening assay (PatchXpress patch clamp, CHO cells)
Protocol: Compounds were screened to test their activity in blocking the hERG potassium channel. The hERG channel is heterologously expressed in a CHO (Chinese Hamster Ovary) cell line. Cells are maintained with standard tissue culture procedures and stable channel expression is maintained with 500 μg/ml G418 in the culture medium. Cells are harvested for testing on the PatchXpress automated patch clamp with Acctumax (Innovative Cell Technologies, San Diego, Calif.) to isolate single cells.
The following solutions are used for electrophysiological recordings. The external solution contains: 2 mM CaCl2; 2 mM MgCl2; 4 mM KCl; 150 mM NaCl; 10 mM Glucose; 10 mM HEPES (pH 7.4 with 1M NaOH, osmolarity).
hERG channels are activated when the voltage is stepped to +20 mV from the −80 mV holding potential (see FIG. 3). During a 5 second step at +20 mV, the channels activate and then largely inactivate, so the currents are relatively small. Upon returning to −50 mV from +20 mV, hERG currents transiently become much larger as inactivation is rapidly removed and then the channel closes. The first step to −50 mV for 300 ms is used as a baseline for measuring the peak amplitude during the step to −50 mV after channel activation. The peak current at −50 mV is measured both under control conditions and after addition of compound.
All compounds are prepared as 10 mM DMSO stocks in glass vials. Stock solutions are mixed by vigorous vortexing and sonication for about 2 minutes at room temperature. For testing, compounds are diluted in glass vials using an intermediate dilution step in pure DMSO and then further diluted to working concentrations in external solution. Dilutions are prepared no longer than 20 minutes before use.
After achieving the whole-cell configuration, cells are monitored for 90 seconds to assess stability and washed with external solution for 66 seconds. The voltage protocol described above is then applied to the cells every 12 seconds and throughout the whole procedure. Only cells with stable recording parameters and meeting specified health criteria are allowed to enter the compound addition procedure.
External solution containing 0.1% DMSO (vehicle) is applied to the cells first to establish the control peak current amplitude. After allowing the current to stabilize for 3 to 5 minutes, 1 μM and then 10 μM test compounds are applied. Each compound concentration is added 4 times and cells are kept in test solution until the effect of the compound reaches steady state or for a maximum of 12 minutes. […] Washout in the external solution compartment is performed until the recovery of the current reaches steady state. Data are analyzed using DataXpress, Clampfit (Molecular Devices, Inc., Sunnyvale) and Origin 7 (Originlab Corp.)

[3] = biological target: T2, human cardiac L-type calcium channels (hCav1.2, coexpressed with the beta 2 subunit) (Homo sapiens, UniProt Q13936); test: L-type calcium channel patch clamp screening assay (ICaL, HEK293); format: cell-based; details: hCav1.2 in HEK293, percentage of current inhibited at steady state; for ICaL Patch Clamp Assay 1 μM % blk: 1 μM test compound; for ICaL Patch Clamp Assay 10 μM % blk: 10 μM test compound
T2 construct: expressed in transfected cells
Protocol: Compounds are screened to test for block of human cardiac L-type calcium channels (hCav1.2, encoded by the human CACNA1C gene and coexpressed with the beta 2 subunit, encoded by the human CACNB2 gene) expressed in an HEK293 cell line. Stable transfectants were selected using antibiotic resistance genes incorporated into the expression plasmids and selection pressure is maintained with selection antibiotics added to the culture medium. Cells are cultured using standard tissue culture methods for HEK293 cells.
Cells are harvested for addition to a PatchXpress automated patch clamp system. The external solution contains: 137 mM NaCl; 4 mM KCl; 1.8 mM CaCl2; 1 mM MgCl2; […]; 10 mM Glucose (pH adjusted to 7.4 with NaOH). The internal solution contains: 130 mM Cs Aspartate; 5 mM MgCl2; 5 mM EGTA; 4 mM ATP; 0.1 mM GTP; 10 mM HEPES (pH adjusted to 7.2 with N-methyl-D-glucamine).
Onset of block and steady state block of hCav1.2 channels are monitored using a stimulus voltage pattern consisting of a depolarizing test pulse (duration, 200 ms; amplitude, 10 mV) at 10s intervals from a −80 mV holding potential (FIG. 5). Test compound concentrations (1 μM and 10 μM) are applied cumulatively in ascending order without washout between applications. Peak current is measured during the step to 10 mV. A saturating concentration of nifedipine (10 μM) is added at the end of each experiment to completely block hCav1.2 current and verify sensitivity to channel blockade. Leakage current is measured after nifedipine addition and digitally subtracted from the total membrane current record. Each compound is applied to naive cells and each concentration is applied four times for a total exposure duration of five (5) minutes per concentration.
Test compound stock solutions are prepared in dimethyl sulfoxide (DMSO) and stored frozen. Test compound concentrations are prepared fresh daily by diluting stock solutions into the external HEPES-buffered physiological saline solution described above. […] Each test compound formulation is sonicated (Model 2510/5510, Branson Ultrasonics, Danbury, Conn.), at ambient room temperature for at least 20 minutes to facilitate dissolution. In preparation for the recording session, a glass-lined 96-well compound plate is loaded with the appropriate amounts of test and control solutions, and placed in the plate well of PatchXpress® (Model 7000A, MDS Analytical Technologies, Sunnyvale, Calif.).
Data acquisition and analyses are performed using conventional software. Steady state is defined by the limiting constant rate of change with time (linear time dependence). The steady state before and after test compound application is used to calculate the percentage of current inhibited at each concentration.

[4] = tonic block, read-out: Tonic Peak INa % blk
[5] = use-dependent block, read-out: UDB Peak INa % blk

T1 sequence (Q14524 whole entry): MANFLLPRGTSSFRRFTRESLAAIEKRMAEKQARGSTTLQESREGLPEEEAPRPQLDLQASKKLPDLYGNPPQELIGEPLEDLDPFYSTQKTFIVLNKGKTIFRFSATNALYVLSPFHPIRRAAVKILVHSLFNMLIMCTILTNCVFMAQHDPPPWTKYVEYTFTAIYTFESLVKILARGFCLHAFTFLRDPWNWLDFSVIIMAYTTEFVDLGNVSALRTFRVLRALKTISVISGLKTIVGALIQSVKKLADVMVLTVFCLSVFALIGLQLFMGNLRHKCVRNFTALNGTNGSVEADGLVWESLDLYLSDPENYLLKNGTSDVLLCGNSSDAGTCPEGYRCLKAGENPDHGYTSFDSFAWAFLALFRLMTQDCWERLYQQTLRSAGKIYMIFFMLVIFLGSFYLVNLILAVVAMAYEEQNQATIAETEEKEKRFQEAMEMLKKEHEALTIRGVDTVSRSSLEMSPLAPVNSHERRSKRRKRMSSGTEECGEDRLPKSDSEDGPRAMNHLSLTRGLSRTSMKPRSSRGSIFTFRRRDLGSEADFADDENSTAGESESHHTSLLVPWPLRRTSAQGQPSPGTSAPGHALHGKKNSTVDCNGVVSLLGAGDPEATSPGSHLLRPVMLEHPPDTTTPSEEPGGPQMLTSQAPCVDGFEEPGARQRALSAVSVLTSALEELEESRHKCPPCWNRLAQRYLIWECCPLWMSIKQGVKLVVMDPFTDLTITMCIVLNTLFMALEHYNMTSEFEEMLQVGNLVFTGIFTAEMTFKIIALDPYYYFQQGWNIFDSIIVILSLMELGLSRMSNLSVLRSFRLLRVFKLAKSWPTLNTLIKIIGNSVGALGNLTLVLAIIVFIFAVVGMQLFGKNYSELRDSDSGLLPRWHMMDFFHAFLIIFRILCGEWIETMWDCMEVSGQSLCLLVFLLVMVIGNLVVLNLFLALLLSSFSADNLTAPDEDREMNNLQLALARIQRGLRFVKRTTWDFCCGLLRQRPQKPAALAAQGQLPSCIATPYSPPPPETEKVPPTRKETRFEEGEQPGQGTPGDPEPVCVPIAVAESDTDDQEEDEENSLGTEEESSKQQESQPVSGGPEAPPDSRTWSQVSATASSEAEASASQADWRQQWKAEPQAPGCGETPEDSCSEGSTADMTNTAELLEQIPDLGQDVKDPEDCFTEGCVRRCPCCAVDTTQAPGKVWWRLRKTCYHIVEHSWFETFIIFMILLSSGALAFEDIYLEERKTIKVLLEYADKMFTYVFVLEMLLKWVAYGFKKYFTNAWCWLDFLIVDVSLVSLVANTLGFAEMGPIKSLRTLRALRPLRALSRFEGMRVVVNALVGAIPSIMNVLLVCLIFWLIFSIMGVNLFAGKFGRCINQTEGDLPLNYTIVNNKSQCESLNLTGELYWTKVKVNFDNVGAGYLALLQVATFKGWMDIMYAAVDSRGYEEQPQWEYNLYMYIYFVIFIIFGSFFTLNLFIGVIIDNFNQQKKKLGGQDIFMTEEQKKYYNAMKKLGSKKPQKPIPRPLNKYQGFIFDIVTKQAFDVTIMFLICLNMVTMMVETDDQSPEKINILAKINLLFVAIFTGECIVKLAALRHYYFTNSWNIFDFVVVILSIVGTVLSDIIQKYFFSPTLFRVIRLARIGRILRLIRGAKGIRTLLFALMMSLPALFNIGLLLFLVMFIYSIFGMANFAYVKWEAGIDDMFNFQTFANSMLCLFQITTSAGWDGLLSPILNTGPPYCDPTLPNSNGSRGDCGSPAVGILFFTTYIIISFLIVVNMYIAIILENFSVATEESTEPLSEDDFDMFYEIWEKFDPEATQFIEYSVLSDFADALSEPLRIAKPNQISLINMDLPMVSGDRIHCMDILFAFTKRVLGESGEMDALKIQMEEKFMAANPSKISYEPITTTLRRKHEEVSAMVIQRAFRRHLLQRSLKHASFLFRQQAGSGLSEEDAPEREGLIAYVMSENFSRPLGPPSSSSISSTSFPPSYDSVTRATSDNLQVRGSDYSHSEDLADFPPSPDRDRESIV
T2 sequence (Q13936 whole entry): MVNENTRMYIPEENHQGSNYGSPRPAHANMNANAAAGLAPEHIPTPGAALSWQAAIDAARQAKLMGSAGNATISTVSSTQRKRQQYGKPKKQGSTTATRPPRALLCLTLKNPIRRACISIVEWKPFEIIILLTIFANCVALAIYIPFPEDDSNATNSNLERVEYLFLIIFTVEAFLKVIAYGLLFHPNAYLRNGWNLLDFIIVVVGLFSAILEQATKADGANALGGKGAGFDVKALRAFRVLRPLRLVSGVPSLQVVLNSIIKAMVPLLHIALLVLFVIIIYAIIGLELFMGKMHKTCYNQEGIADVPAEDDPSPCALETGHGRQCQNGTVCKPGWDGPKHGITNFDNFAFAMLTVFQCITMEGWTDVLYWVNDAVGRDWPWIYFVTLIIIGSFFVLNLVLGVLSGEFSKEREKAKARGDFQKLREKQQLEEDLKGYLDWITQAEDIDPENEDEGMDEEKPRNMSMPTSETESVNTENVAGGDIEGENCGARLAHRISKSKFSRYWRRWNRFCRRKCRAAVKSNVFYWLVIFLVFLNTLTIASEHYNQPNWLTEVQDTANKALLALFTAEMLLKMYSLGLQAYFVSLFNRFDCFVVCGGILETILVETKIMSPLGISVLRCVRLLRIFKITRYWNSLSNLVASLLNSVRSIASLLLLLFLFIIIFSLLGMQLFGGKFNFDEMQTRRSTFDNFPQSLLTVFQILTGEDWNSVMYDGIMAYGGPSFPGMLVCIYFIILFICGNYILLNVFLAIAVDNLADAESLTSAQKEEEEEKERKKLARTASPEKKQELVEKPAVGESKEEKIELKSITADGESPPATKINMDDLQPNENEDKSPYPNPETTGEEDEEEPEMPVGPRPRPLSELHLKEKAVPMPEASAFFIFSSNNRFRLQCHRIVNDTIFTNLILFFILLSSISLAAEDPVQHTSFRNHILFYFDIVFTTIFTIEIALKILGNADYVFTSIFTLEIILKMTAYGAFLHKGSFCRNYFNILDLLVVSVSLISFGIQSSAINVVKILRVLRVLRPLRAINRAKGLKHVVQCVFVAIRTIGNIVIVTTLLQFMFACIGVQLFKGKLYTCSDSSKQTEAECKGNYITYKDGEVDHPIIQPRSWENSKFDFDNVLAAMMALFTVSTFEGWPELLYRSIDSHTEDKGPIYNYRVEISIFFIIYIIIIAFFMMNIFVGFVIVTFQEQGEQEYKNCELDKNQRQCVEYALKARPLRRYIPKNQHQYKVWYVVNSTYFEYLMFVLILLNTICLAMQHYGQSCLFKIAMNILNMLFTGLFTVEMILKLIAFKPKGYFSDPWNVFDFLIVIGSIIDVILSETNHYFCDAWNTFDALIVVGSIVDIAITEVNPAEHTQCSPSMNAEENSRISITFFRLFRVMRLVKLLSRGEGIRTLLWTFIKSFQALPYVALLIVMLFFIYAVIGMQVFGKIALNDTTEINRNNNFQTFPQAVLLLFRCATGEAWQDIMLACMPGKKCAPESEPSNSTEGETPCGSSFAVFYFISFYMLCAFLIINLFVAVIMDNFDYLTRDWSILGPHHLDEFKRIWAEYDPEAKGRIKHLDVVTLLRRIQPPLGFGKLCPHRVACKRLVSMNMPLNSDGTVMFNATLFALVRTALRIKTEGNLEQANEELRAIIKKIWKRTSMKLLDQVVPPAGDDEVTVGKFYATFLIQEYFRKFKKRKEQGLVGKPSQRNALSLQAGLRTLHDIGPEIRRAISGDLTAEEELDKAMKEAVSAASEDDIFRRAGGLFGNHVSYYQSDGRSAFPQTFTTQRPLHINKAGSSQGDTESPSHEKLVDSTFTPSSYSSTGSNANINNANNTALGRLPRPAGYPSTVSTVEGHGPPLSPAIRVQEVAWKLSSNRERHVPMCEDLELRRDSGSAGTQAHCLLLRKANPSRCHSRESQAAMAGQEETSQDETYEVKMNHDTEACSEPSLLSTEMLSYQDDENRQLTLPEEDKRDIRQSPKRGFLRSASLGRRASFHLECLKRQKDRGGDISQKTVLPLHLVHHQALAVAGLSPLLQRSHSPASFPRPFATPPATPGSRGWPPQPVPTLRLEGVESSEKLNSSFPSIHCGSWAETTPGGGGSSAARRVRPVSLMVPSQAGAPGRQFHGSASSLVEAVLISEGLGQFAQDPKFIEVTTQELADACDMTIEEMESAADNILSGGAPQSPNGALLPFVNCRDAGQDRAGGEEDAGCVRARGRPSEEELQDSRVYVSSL
T2 sequence (Q08289 whole entry partner): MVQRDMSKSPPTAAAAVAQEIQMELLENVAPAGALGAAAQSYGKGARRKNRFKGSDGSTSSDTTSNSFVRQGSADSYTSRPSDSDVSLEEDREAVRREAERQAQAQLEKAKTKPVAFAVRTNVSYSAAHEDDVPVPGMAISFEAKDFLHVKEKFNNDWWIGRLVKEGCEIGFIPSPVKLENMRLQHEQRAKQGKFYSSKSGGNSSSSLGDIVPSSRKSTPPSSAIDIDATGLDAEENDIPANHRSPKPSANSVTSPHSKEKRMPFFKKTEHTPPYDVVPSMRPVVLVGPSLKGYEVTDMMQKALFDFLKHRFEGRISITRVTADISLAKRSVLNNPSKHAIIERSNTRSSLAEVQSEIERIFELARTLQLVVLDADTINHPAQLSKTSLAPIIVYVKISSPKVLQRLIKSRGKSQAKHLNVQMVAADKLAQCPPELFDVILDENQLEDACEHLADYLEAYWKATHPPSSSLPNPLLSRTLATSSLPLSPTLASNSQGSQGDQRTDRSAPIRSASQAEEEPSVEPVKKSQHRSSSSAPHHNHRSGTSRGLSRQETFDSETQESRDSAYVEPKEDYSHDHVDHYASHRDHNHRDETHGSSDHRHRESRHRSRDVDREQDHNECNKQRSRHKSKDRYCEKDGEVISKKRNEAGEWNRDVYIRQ

Compound	inhibition at 10 µM [2, 4]	inhibition at 10 µM [2, 5]	hERG Patch Clamp hERG % blk (1 μM test cmpd) (hERG potassium channel)	hERG Patch Clamp hERG % blk (10 μM test cmpd) (hERG potassium channel)	also measured
CC1=C(C(=O)O[C@H](C)c2ccccc2)C(c2cccc3ccccc23)n2nnnc2N1 (some centres unmarked) [PT-047]	–	–	–	–	Late INa % blk [1]: 67.4%; Tonic Peak INa % blk ([2]; tonic block): 36.3%; CaL Plate Assay % blk (1 μM test cmpd) (L-type calcium channel; 1 μM test cmpd): 24%; CaL Plate Assay % blk (10 μM test cmpd) (L-type calcium channel; 10 μM test cmpd): 42%
CC1=C(C(=O)OCc2ccccc2)[C@@H](c2ccccc2-c2ccc(C)o2)n2nnnc2N1 [PT-235, (R)-benzyl 5-methyl-7-(2-(5-methylfuran-2-yl)phenyl)-4,7-dihydrotetrazolo[1,5-a]pyrimidine-6-carboxylate]	8.8%	4.5%	10%	41.5%	–
CC1=C(C(=O)OCc2ccccc2)C(c2cccc3ccccc23)n2nnnc2N1Cc1nnn[nH]1 (centres unmarked) [PT-326, benzyl 4-((1H-tetrazol-5-yl)methyl)-5-methyl-7-(naphthalen-1-yl)-4,7-dihydrotetrazolo[1,5-a]pyrimidine-6-carboxylate]	32.2%	11.6%	–	–	–
CC1=C(C(=O)OCc2ccccc2)C(c2ccccc2-c2ccc(NS(C)(=O)=O)cc2)c2cn[nH]c2N1 (centres unmarked) [PT-366, benzyl 6-methyl-4-(4′-(methylsulfonamido)biphenyl-2-yl)-4,7-dihydro-1H-pyrazolo[3,4-b]pyridine-5-carboxylate]	20%	4.6%	28%	92%	–
COc1ccc(C2C(C(=O)OCc3ccccc3)=C(C)Nc3nnnn32)c(C#N)c1 (centres unmarked) [PT-389, benzyl 7-(2-cyano-4-methoxyphenyl)-5-methyl-4,7-dihydrotetrazolo[1,5-a]pyrimidine-6-carboxylate]	13.9%	2.9%	23.5%	69%	–
CC1=C(C(=O)OCc2ccccc2)C(c2sccc2Br)n2nnnc2N1 (centres unmarked) [PT-401, benzyl 7-(3-bromothiophen-2-yl)-5-methyl-4,7-dihydrotetrazolo[1,5-a]pyrimidine-6-carboxylate]	34.6%	4.8%	–	–	–
CCOC(=O)C1=C(C)NC(C)=C(C(=O)OCC)C1c1ccc(OC)cc1C#N [PT-431, diethyl 4-(2-cyano-4-methoxyphenyl)-2,6-dimethyl-1,4-dihydropyridine-3,5-dicarboxylate]	–	–	–	–	ICaL Patch Clamp Assay 1 μM % blk [3]: 3.7%; ICaL Patch Clamp Assay 10 μM % blk [3]: 2.4%
CCOC(=O)C1=C(C)NC(C)=C(C(=O)OCC)C1c1ccc(OC)cc1F [PT-432, diethyl 4-(2-fluoro-4-methoxyphenyl)-2,6-dimethyl-1,4-dihydropyridine-3,5-dicarboxylate]	–	–	–	–	ICaL Patch Clamp Assay 1 μM % blk [3]: 3.7%; ICaL Patch Clamp Assay 10 μM % blk [3]: 35.3%
CCOC(=O)C1=C(C)NC(C)=C(C(=O)OCC)C1c1ccc(N(C)C)cc1[N+](=O)[O-] [PT-437, diethyl 4-(4-(dimethylamino)-2-nitrophenyl)-2,6-dimethyl-1,4-dihydropyridine-3,5-dicarboxylate]	–	–	–	–	ICaL Patch Clamp Assay 1 μM % blk [3]: −0.1%; ICaL Patch Clamp Assay 10 μM % blk [3]: 13.2%
CCOC(=O)C1=C(C)Nc2c(c(C)nn2C)C1c1cccc2ccccc12 (centres unmarked) [PT-440, ethyl 1,3,6-trimethyl-4-(naphthalen-1-yl)-4,7-dihydro-1H-pyrazolo[3,4-b]pyridine-5-carboxylate]	2.8%	4.3%	12%	48%	–
CCOC(=O)C1=C(C)Nc2nnnn2C1c1ccccc1I (centres unmarked) [PT-492, ethyl 7-(2-iodophenyl)-5-methyl-4,7-dihydrotetrazolo[1,5-a]pyrimidine-6-carboxylate]	20.6%	4.8%	–	–	–
CC1=C(C(=O)O[C@@H](C)c2ccccc2)C(c2sc3ccccc3c2C)c2cn[nH]c2N1 (some centres unmarked) [PT-523]	–	–	–	–	Late INa % blk [1]: 66.7%; Tonic Peak INa % blk ([2]; tonic block): 20.8%; UDB Peak INa % blk ([2]; use-dependent block): 16.2%
